According to US9914710B2, “Bicyclic arylcarboxylic acid amides and their use as herbicides” (BAYER CROPSCIENCE AKTIENGESELLSCHAFT, priority 2014, dated 2018):

Tests used:
Experiment in all cases: Post-emergence herbicidal action against harmful plants
Assay type in all cases: in vivo
Conditions in all cases: one-leaf stage, application rate 80 g/ha, assessed visually after about 3 weeks vs untreated controls
Stellaria media = test system: Stellaria media
Description: (§1) Seeds of monocotyledonous and dicotyledonous weed and crop plants are laid out in sandy loam in wood-fiber pots, covered with soil and cultivated in a greenhouse under good growth conditions. 2 to 3 weeks after sowing, the test plants are treated at the one-leaf stage. The compounds of the invention, formulated in the form of wettable powders (WP) or as emulsion concentrates (EC), are then sprayed onto the green parts of the plants in the form of an aqueous suspension or emulsion at a water application rate equating to 600 to 800 I/ha, with addition of 0.2% wetting agent. After the test plants have been left to stand in the greenhouse under optimal growth conditions for about 3 weeks, the action of the preparations is assessed visually in comparison to untreated controls (herbicidal action in percent (%): 100% activity=the plants have died, 0% activity=like control plants). For example, compounds no. 1-18, 1-19, 1-20, 1-21, 1-23, 1-25, 1-26, 1-27, 1-30, 1-32, 1-51, 1-52, 1-53, 1-63, 1-65, 1-69, 1-70, 1-75, 1-76, 1-77, 1-78, 1-79, 1-80, 1-84, 2-18, 2-20 and 4-18 at an application rate of 80 g/ha each have 100% efficacy against Stellaria media, Veronica persica and Viola tricolor.

Veronica persica = test system: Veronica persica
Description: as §1

Viola tricolor = test system: Viola tricolor
Description: as §1

Cn1nnnc1NC(=O)c1cc2c(c([S+](C)[O-])c1Cl)CCC2 (racemic) [1-19]
100%: efficacy (herbicidal action in percent) against Stellaria media (Stellaria media) | efficacy (herbicidal action in percent) against Veronica persica (Veronica persica) | efficacy (herbicidal action in percent) against Viola tricolor (Viola tricolor)

CCn1nnnc1NC(=O)c1cc2c(c([S+](C)[O-])c1Cl)CCC2 (racemic) [1-25]
100%: efficacy (herbicidal action in percent) against Stellaria media (Stellaria media) | efficacy (herbicidal action in percent) against Veronica persica (Veronica persica) | efficacy (herbicidal action in percent) against Viola tricolor (Viola tricolor)

Cn1nnnc1NC(=O)c1cc2c(c([S+](C)[O-])c1Cl)CCCC2 (racemic) [1-52]
100%: efficacy (herbicidal action in percent) against Stellaria media (Stellaria media) | efficacy (herbicidal action in percent) against Veronica persica (Veronica persica) | efficacy (herbicidal action in percent) against Viola tricolor (Viola tricolor)

Cn1nnnc1NC(=O)c1cc2c(c([S+](C)[O-])c1Cl)CCO2 (racemic) [1-70]
100%: efficacy (herbicidal action in percent) against Stellaria media (Stellaria media) | efficacy (herbicidal action in percent) against Veronica persica (Veronica persica) | efficacy (herbicidal action in percent) against Viola tricolor (Viola tricolor)

Cn1nnnc1NC(=O)c1cc2c(c([S+](C)[O-])c1Br)CCC2 (racemic) [1-76]
100%: efficacy (herbicidal action in percent) against Stellaria media (Stellaria media) | efficacy (herbicidal action in percent) against Veronica persica (Veronica persica) | efficacy (herbicidal action in percent) against Viola tricolor (Viola tricolor)

CC[S+]([O-])c1c(Br)c(C(=O)Nc2nnnn2C)cc2c1CCC2 (racemic) [1-79]
100%: efficacy (herbicidal action in percent) against Stellaria media (Stellaria media) | efficacy (herbicidal action in percent) against Veronica persica (Veronica persica) | efficacy (herbicidal action in percent) against Viola tricolor (Viola tricolor)

CSc1c(Cl)c(C(=O)Nc2nnnn2C)cc2c1CCC2 [1-18]
100%: efficacy (herbicidal action in percent) against Stellaria media (Stellaria media) | efficacy (herbicidal action in percent) against Veronica persica (Veronica persica) | efficacy (herbicidal action in percent) against Viola tricolor (Viola tricolor)

Cn1nnnc1NC(=O)c1cc2c(c(S(C)(=O)=O)c1Cl)CCC2 [1-20]
100%: efficacy (herbicidal action in percent) against Stellaria media (Stellaria media) | efficacy (herbicidal action in percent) against Veronica persica (Veronica persica) | efficacy (herbicidal action in percent) against Viola tricolor (Viola tricolor)

CCSc1c(Cl)c(C(=O)Nc2nnnn2C)cc2c1CCC2 [1-21]
100%: efficacy (herbicidal action in percent) against Stellaria media (Stellaria media) | efficacy (herbicidal action in percent) against Veronica persica (Veronica persica) | efficacy (herbicidal action in percent) against Viola tricolor (Viola tricolor)

CCS(=O)(=O)c1c(Cl)c(C(=O)Nc2nnnn2C)cc2c1CCC2 [1-23]
100%: efficacy (herbicidal action in percent) against Stellaria media (Stellaria media) | efficacy (herbicidal action in percent) against Veronica persica (Veronica persica) | efficacy (herbicidal action in percent) against Viola tricolor (Viola tricolor)

CCn1nnnc1NC(=O)c1cc2c(c(S(C)(=O)=O)c1Cl)CCC2 [1-26]
100%: efficacy (herbicidal action in percent) against Stellaria media (Stellaria media) | efficacy (herbicidal action in percent) against Veronica persica (Veronica persica) | efficacy (herbicidal action in percent) against Viola tricolor (Viola tricolor)

CCSc1c(Cl)c(C(=O)Nc2nnnn2CC)cc2c1CCC2 [1-27]
100%: efficacy (herbicidal action in percent) against Stellaria media (Stellaria media) | efficacy (herbicidal action in percent) against Veronica persica (Veronica persica) | efficacy (herbicidal action in percent) against Viola tricolor (Viola tricolor)

CSc1c(Cl)c(C(=O)Nc2nnnn2C)cc2c1C(=O)CC2 [1-30]
100%: efficacy (herbicidal action in percent) against Stellaria media (Stellaria media) | efficacy (herbicidal action in percent) against Veronica persica (Veronica persica) | efficacy (herbicidal action in percent) against Viola tricolor (Viola tricolor)

Cn1nnnc1NC(=O)c1cc2c(c(S(C)(=O)=O)c1Cl)C(=O)CC2 [1-32]
100%: efficacy (herbicidal action in percent) against Stellaria media (Stellaria media) | efficacy (herbicidal action in percent) against Veronica persica (Veronica persica) | efficacy (herbicidal action in percent) against Viola tricolor (Viola tricolor)

CSc1c(Cl)c(C(=O)Nc2nnnn2C)cc2c1CCCC2 [1-51, N-(1-methyltetrazol-5-yl)-3-chloro-4-(methylthio)-5,6,7,8-tetrahydronaphthalene-2-carboxamide]
100%: efficacy (herbicidal action in percent) against Stellaria media (Stellaria media) | efficacy (herbicidal action in percent) against Veronica persica (Veronica persica) | efficacy (herbicidal action in percent) against Viola tricolor (Viola tricolor)

Cn1nnnc1NC(=O)c1cc2c(c(S(C)(=O)=O)c1Cl)CCCC2 [1-53]
100%: efficacy (herbicidal action in percent) against Stellaria media (Stellaria media) | efficacy (herbicidal action in percent) against Veronica persica (Veronica persica) | efficacy (herbicidal action in percent) against Viola tricolor (Viola tricolor)

CSc1c(Cl)c(C(=O)Nc2nnnn2C)cc2c1OCC2 [1-63]
100%: efficacy (herbicidal action in percent) against Stellaria media (Stellaria media) | efficacy (herbicidal action in percent) against Veronica persica (Veronica persica) | efficacy (herbicidal action in percent) against Viola tricolor (Viola tricolor)

Cn1nnnc1NC(=O)c1cc2c(c(S(C)(=O)=O)c1Cl)OCC2 [1-65]
100%: efficacy (herbicidal action in percent) against Stellaria media (Stellaria media) | efficacy (herbicidal action in percent) against Veronica persica (Veronica persica) | efficacy (herbicidal action in percent) against Viola tricolor (Viola tricolor)

CSc1c(Cl)c(C(=O)Nc2nnnn2C)cc2c1CCO2 [1-69]
100%: efficacy (herbicidal action in percent) against Stellaria media (Stellaria media) | efficacy (herbicidal action in percent) against Veronica persica (Veronica persica) | efficacy (herbicidal action in percent) against Viola tricolor (Viola tricolor)

CSc1c(Br)c(C(=O)Nc2nnnn2C)cc2c1CCC2 [1-75]
100%: efficacy (herbicidal action in percent) against Stellaria media (Stellaria media) | efficacy (herbicidal action in percent) against Veronica persica (Veronica persica) | efficacy (herbicidal action in percent) against Viola tricolor (Viola tricolor)

Cn1nnnc1NC(=O)c1cc2c(c(S(C)(=O)=O)c1Br)CCC2 [1-77]
100%: efficacy (herbicidal action in percent) against Stellaria media (Stellaria media) | efficacy (herbicidal action in percent) against Veronica persica (Veronica persica) | efficacy (herbicidal action in percent) against Viola tricolor (Viola tricolor)

CCSc1c(Br)c(C(=O)Nc2nnnn2C)cc2c1CCC2 [1-78]
100%: efficacy (herbicidal action in percent) against Stellaria media (Stellaria media) | efficacy (herbicidal action in percent) against Veronica persica (Veronica persica) | efficacy (herbicidal action in percent) against Viola tricolor (Viola tricolor)

CCS(=O)(=O)c1c(Br)c(C(=O)Nc2nnnn2C)cc2c1CCC2 [1-80]
100%: efficacy (herbicidal action in percent) against Stellaria media (Stellaria media) | efficacy (herbicidal action in percent) against Veronica persica (Veronica persica) | efficacy (herbicidal action in percent) against Viola tricolor (Viola tricolor)

CCSc1c(Br)c(C(=O)Nc2nnnn2CC)cc2c1CCC2 [1-84]
100%: efficacy (herbicidal action in percent) against Stellaria media (Stellaria media) | efficacy (herbicidal action in percent) against Veronica persica (Veronica persica) | efficacy (herbicidal action in percent) against Viola tricolor (Viola tricolor)

CSc1c(Cl)c(C(=O)Nc2ncnn2C)cc2c1CCC2 [2-18]
100%: efficacy (herbicidal action in percent) against Stellaria media (Stellaria media) | efficacy (herbicidal action in percent) against Veronica persica (Veronica persica) | efficacy (herbicidal action in percent) against Viola tricolor (Viola tricolor)

Cn1ncnc1NC(=O)c1cc2c(c(S(C)(=O)=O)c1Cl)CCC2 [2-20]
100%: efficacy (herbicidal action in percent) against Stellaria media (Stellaria media) | efficacy (herbicidal action in percent) against Veronica persica (Veronica persica) | efficacy (herbicidal action in percent) against Viola tricolor (Viola tricolor)

CSc1c(Cl)c(C(=O)Nc2nnc(C)o2)cc2c1CCC2 [4-18]
100%: efficacy (herbicidal action in percent) against Stellaria media (Stellaria media) | efficacy (herbicidal action in percent) against Veronica persica (Veronica persica) | efficacy (herbicidal action in percent) against Viola tricolor (Viola tricolor)
